# Data from US6346544B2, “Desmethyl tocopherols for protecting cardiovascular tissue” (Oklahoma Medical Research Foundation, priority 2000, dated 2002).
# Experiments:
# [1] = 400-800 IU/day, 18 months, cited from earlier work
# [2] = 35,000 postmenopausal women, 7 years; supplements alone or with dietary intake; cited from earlier work
# [3] = tested on: αKGDH; test: heart αKGDH activity after tocopherol supplementation, with or without LPS challenge; assay type: in vivo, rat; details: animals not subjected to LPS stress; 15 mg tocopherol I.P. over 30 days
# Method: Rats were injected with 15 mg of tocopherol over the first 1 month of life; specific groups were then challenged with a septic dose of LPS and heart αKGDH activity was assayed 24 H later. *p<0.1 relative to vehicle; †p<0.05 relative to vehicle. N=5/group.
# Rat pups were injected intraperitoneally (I.P.) with αT or γT in an olive oil vehicle every other day for 30 days beginning 2 days after birth; control animals received vehicle only. […] A total of 15 mg tocopherol was delivered to each animal over the 30 day period; animal weight at the end of the period was approximately 90 g for all three groups. One half of each animal group was injected with a septic dose of LPS (2.5 mg/kg, I.P). After 24 H, animals were killed and organs collected. αKGDH was assayed in heart tissue and tocopherols were measured by HPLC-ECD/PDA.
# [4] = plasma concentrations of tocopherols and 5-NO2-γ-tocopherol in volunteers; assay type: in vivo, human; details: mean ± SEM
# Description: Smoking is recognized as a major contributing factor to heart disease and γ-T reportedly decreases more than α-T in smokers. Hypertension is also a strong risk factor for heart disease. […] Seven subjects indicated a chronic hypertensive condition. As outlined in Table I, γ-tocopherol tended to decrease in hypertensive subjects while nitration products tended to increase in both smokers and hypertensive subjects. This was the trend regardless of whether the tocopherol concentrations were normalized to plasma triglycerides (Table I).
# [5] = rat, in vivo
# Method: Rat pups were injected intraperitoneally (I.P.) with αT or γT in an olive oil vehicle every other day for 30 days beginning 2 days after birth; control animals received vehicle only. Olive oil was chosen as a vehicle because of the low tocopherol content in this particular vegetable oil. […] One half of each animal group was injected with a septic dose of LPS (2.5 mg/kg, I.P). After 24 H, animals were killed and organs collected. αKGDH was assayed in heart tissue and tocopherols were measured by HPLC-ECD/PDA.
# [6] = 100 mg/kg/day for 10 days; 29% FeCl3 patch; cited from earlier work
# [7] = chronic αT supplementation; cited from earlier work
# [8] = median intake 419 vs. 6.4 IU/day, 39,910 men; cited from earlier work
# [9] = upper vs lowest quintile of αT consumption, 87,425 nurses, 8 years; cited from earlier work
# [10] = 400 IU/day natural αT, 4.5 years, 9541 subjects; cited from earlier work
# [11] = associated with a 40% increase in plasma αT; cited from earlier work
# [12] = 50 mg/kg supplement, 5.3 years follow-up; cited from earlier work
# [13] = tested on: αKGDH; test: αKGDH protection against SIN-1 nitrative stress in isolated mitochondria in vitro; assay type: biochemical, rat; details: 400 μM SIN-1, one hour
# Method: FIG. 3 is a graph showing rat brain mitochondria exposed to 0.4 mM SIN-1 for 1 H after addition of tocopherol. (•)α-tocopherol; (▪)γ-tocopherol. The scale bars labeled [α]norm and [Y]norm indicate the normal endogenous quantities of α-tocopherol and γ-tocopherol, respectively, in human brain.
# αKGDH is a rate-limiting enzyme of mitochondrial energy production which is diminished in conditions of vascular ischemia (53-58); augmentation of the enzyme with α-ketoglutarate has been found beneficial and α-ketoglutarate is now included as a component in cardioplegia fluid to improve recovery after heart surgery (59). We undertook to determine whether γT protects αKGDH against nitrative stress in vitro. Mitochondria were isolated from adult rat brain then sonicated briefly in the presence of either αT or γT, or an ethanol vehicle. Mitochondria were then exposed to SIN-1, which generates NO and superoxide simultaneously at a known rate (7). Combination of NO and superoxide yields ONOO^−. in situ (discussed above).
# [14] = tested on: ECV304 human endothelial cells; details: 10 μM α-T, 10 μM γ-T or 5 μM of each; 19 hours preincubation; 5 mM SIN-1; 24 hours
# Method: Cultured ECV304 human endothelial cells were exposed to SIN-1 in the presence of 10 μM α-T, 10 μM γ-T or 5 μM of each (FIG. 5). Tocopherols were incubated with the cells for 19 hours prior to addition of SIN-1. Viability was assayed 24 hours later using a standard tetrazolium (MTT) reduction assay.
# [15] = cited from earlier work
# [16] = tested on: platelets; test: platelet aggregation in vitro (PRP, aggregometer); assay type: cell-based, human; details: 500 μM α-tocopherol or 50 μM γ-tocopherol, 1 H preincubation
# Method: […] inhibits platelet aggregation in vitro and in vivo, apparently through antagonism of protein kinase C (PKC) (60-63). Concentrations of αT necessary to inhibit aggregation in vitro are on the order of 500 μM (60-63), or approximately 10-fold higher than achieved in vivo. The concentration difference between in vitro and in vivo efficacy has been rationalized on the basis of incomplete tocopherol incorporation into membranes during in vitro incubation (63). Nonetheless, subjects supplemented with oral αT have diminished platelet aggregation (63). We therefore sought to investigate the ability of γ-tocopherol to inhibit platelet aggregation. PRP was obtained from two volunteers. Platelets were stimulated to aggregate with ADP, thrombin receptor activating peptide (TRAP) or the PKC agonist phorbol myristyl acetate (PMA) and aggregation was measured using a 4-channel clinical aggregometer. Specific platelet samples were preincubated with vehicle, αT, γT or 5-NO2-γ-tocopherol for 1 H prior to stimulation. Tocopherol concentrations were set at 10-fold excess to average PRP levels based on the precedent of previous in vitro aggregation experiments that used αT as an inhibitor (60-63).
# [17] = tested on: platelets; details: cited from earlier work
# [18] = own supplementation, 100 mg/kg/day, 10 days; cited from earlier work
smiles,measurement,setting,value
"Cc1c(C)c2c(c(C)c1O)CC[C@@](C)(CCC[C@H](C)CCC[C@H](C)CCCC(C)C)O2 [α-tocopherol, reference compound]",reduction in nonfatal myocardial infarction,[1]; 2002 male smokers with CAD,77%
same,increase in all-cause mortality,[1],29%
same,benefit of supplements on cardiovascular death,[2],no benefit
same,increase of mean heart αKGDH activity,[3],40%
same,plasma concentration,"[4]; hypertensives, N = 7",23.1 ± 12.2 μg/mL plasma
same,plasma concentration normalized to triglyceride,"[4]; hypertensives, N = 7",21.9 ± 5.9 μg/mg triglyceride
same,plasma concentration,"[4]; population, N = 54",18.3 ± 2.6 μg/mL plasma
same,plasma concentration normalized to triglyceride,"[4]; population, N = 54",34.2 ± 14.2 μg/mg triglyceride
same,plasma concentration,"[4]; smokers, N = 7",24.9 ± 9.2 μg/mL plasma
same,plasma concentration normalized to triglyceride,"[4]; smokers, N = 7",21.5 ± 4.5 μg/mg triglyceride
same,"heart tissue tocopherol concentration, controls",[5],23±12 ng/mg protein
same,delay/increase of time to occlusive thrombus,[6],25%
same,increase of plasma levels of αT,[7],300-400%
same,diminished risk of CAD,[8],39%
same,diminished risk of coronary disease,[9],34%
same,effect on primary or secondary cardiovascular outcomes or death,[10],no effect
same,lower mortality rate (ischemic heart disease),[11],84%
same,effect on MI or mortality,[12],no effect
same,concentration offering as much αKGDH protection as 50-100 nM γT,[13],1 to 10 µM
same,tocopherol concentration of maximal αKGDH protection,[13]; rat brain mitochondria,1 µM
same,effect on SIN-1 toxicity (MTT viability),[14],no apparent effect
same,increase of plasma αT,[15]; 50 IU/day supplementation,50%
same,effect on death from hemorrhagic stroke,"[15]; 50 IU/day, 5-8 years",increases death from hemorrhagic stroke
same,effect on total mortality of smokers,"[15]; 50 IU/day, 5-8 years",does not decrease total mortality
same,Platelet Aggregation (% maximum),"[16]; ADP 20 μM, Subject 1",85 % maximum
same,Platelet Aggregation (% maximum),"[16]; ADP 20 μM, Subject 2",72 % maximum
same,Platelet Aggregation (% maximum),"[16]; PMA 200 nM, Subject 1",74 % maximum
same,Platelet Aggregation (% maximum),"[16]; PMA 200 nM, Subject 2",34 % maximum
same,Platelet Aggregation (% maximum),"[16]; TRAP 20 μM, Subject 1",44 % maximum
same,Platelet Aggregation (% maximum),"[16]; TRAP 20 μM, Subject 2",75 % maximum
same,concentration necessary to inhibit aggregation in vitro,[17],~500 µM
same,increase of plasma level above baseline,[18],2 fold
